From patent US6846637B1, “Fas peptides and antibodies for modulating apoptosis” (IMED AB, priority 1998, dated 2005)

Legend:
[1] = system: antibodies in human sera of healthy blood donors; experiment: ELISA reactivity of human serum to Fas peptides; assay type: binding; settings: for Reactivity to Fas peptides in ELISA, Human serum: O.D. 490 nm classes; for reactivity with human sera: sera of 30 healthy blood donors, in words
Text: The derived amino acid sequence (a.a.1-179) of the Fas protein (Itoh et al., 1991) was used for simultaneous multiple solid-phase peptide synthesis (Houghten et al, 1985) of 20 amino acid long peptides (with a 10-residue overlap).

[2] = system: immunoglobulin preparations derived from pooled human serum (Gammagard); experiment: ELISA reactivity of immunoglobulin preparations (Gammagard) to Fas peptides; assay type: binding; settings: O.D. 490 nm classes
Method: Similar experiments were performed with commercially available immunoglobulin preparations derived from pooled human serum enriched by immunosorbence for immunoglobulin fractions (Gammagard-Baxter, Hyland, Glendale, Calif. USA).

[3] = system: Jurkat leukemia T cells; experiment: TUNEL assay of apoptosis of Jurkat cells on immobilized anti-Fas peptide antibodies; assay type: cell-based, human; settings: immobilized antibody, 48 h, TUNEL/FACS; control well 18%
Method: The antibody-concentrations were anti-Fp5 (10 μg/ml), anti-Fp11 (10 μg/ml) and anti-Fpl7 (40 μg/ml). Cells were collected after 48 h incubation, and the fragmented DNA of apoptotic cells was assessed by Apoptosis Detection System, Fluorescein (Promega, Madison, Wis.) based on TdT-mediated dUTP Nick-End Labeling (TUNEL) assay and FACS analysis (CellQuest software, Becton Dickinson) according to manufacturer's instructions. For apoptosis inhibition experiments, Jurkat cell culture medium was supplemented with 200 ng/ml of recombinant Fas-Fc chimera (R&D Systems Europe Ltd, Abingdon, UK). Inhibition of CH-11-mediated apoptosis was performed as described in Fadeel et al., 1997. Data are presented as the mean value of four independent experiments, and the standard error of mean is indicated by the error bars.
Ability to mediate apoptosis and inhibition of proliferation was determined using antibodies immobilized to plastic surface.

[4] = target: Fas peptide Fp11 (Glu100-Cys119) (human); experiment: peptide ELISA; legend: +++ > 1.0 O.D.
Sequence of Fas peptide Fp11 (Glu100-Cys119) (human) (peptide, as listed by the source): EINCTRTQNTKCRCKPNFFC

[5] = target: Fas peptide Fp17 (Trp160-Val179) (human); experiment: peptide ELISA; legend: + = <0.5 O.D. 490 nm
[6] = target: Fas peptide Fp5 (Gly40-Val59) (human); experiment: peptide ELISA; legend: + = <0.5 O.D. 490 nm
[7] = system: PHA-stimulated T cell blasts; experiment: Proliferation of PHA-stimulated T-cell blasts (Alamar Blue); assay type: cell-based, human; settings: anti-CD3 alone
Method: PBMC were stimulated with phytohemagglutinin (PHA) ([…]) (Pharmacia Biotech, Sweden) for 48 hours. […] After 48 hours incubation, the proliferation was assessed by Alamar Blue Assay (Biosource International, USA.) and the results were expressed as percent difference in reduction of (fluorometric/colorometric) REDOX indicator between antibody coated and control (without antibodies) wells according to manufacturer's instructions (AMS Biotechnology AB, Sweden).

Substance	Reactivity to Fas peptides in ELISA, Human serum [1]	reactivity with human sera [1]	Reactivity to Fas peptides in ELISA, Immunoglobulin preparations (Gammagard) [2]	also measured
GQFCHKPCPPGERKARDCTV [Fp5]	++ (++ = <1.0 O.D.)	reactive	+ (+ = <0.5 O.D. 490 nm)	apoptosis induced in Jurkat leukemia cells [3]: 25%
HFSSKCRRCRLCDEGHGLEV [Fp9]	–	–	++ (++ = <1.0 O.D.)	–
Immunoglobulin preparations (Gammagard) (antibody)	–	–	–	O.D. 490 nm [4]: > 1 od; O.D. 490 nm [5]: < 0.5 od; O.D. 490 nm [6]: < 0.5 od
KCRCKPNFFCNSTVCEHCDP [Fp12]	++ (++ = <1.0 O.D.)	–	++ (++ = <1.0 O.D.)	–
KEEGSRSNLGWLCLLLLPIP [Fp16]	–	low or no reactivity	+ (+ = <0.5 O.D. 490 nm)	–
LIVWVKRKEVQKTCRKHRKE [Fp18]	–	–	+++ (+++ > 1.0 O.D.)	–
QEGKEYTDKAHFSSKCRRCR [Fp8]	–	–	+++ (+++ > 1.0 O.D.)	–
WLCLLLLPIPLIVWVKRKEV [Fp17]	+++ (+++ > 1.0 O.D.)	reactive	+ (+ = <0.5 O.D. 490 nm)	serum titers against peptide ([1]; 30 healthy donors, comparison of Fp5, Fp11, Fp17): lowest mean titers
anti-CD3: purified anti-CD3 monoclonal antibody (OKT-3, 10 μg/ml)	–	–	–	reduction of proliferation [7]: 12%
